From PMC3691235, “Discovery of a Novel Dual Fungal CYP51/Human 5-Lipoxygenase Inhibitor: Implications for Anti-Fungal Therapy” (PLoS ONE, 2013)
Like-named read-outs stand apart in the source and are kept apart here.

What was measured:
[1] = biological target: T1, Human leukocyte 5-lipoxygenase (Homo sapiens, UniProt P09917); assay: Lipoxygenase UV-based inhibitor assay, 5-LOX; type: biochemical
T1 construct: made in house
T1 sequence (P09917 1-674): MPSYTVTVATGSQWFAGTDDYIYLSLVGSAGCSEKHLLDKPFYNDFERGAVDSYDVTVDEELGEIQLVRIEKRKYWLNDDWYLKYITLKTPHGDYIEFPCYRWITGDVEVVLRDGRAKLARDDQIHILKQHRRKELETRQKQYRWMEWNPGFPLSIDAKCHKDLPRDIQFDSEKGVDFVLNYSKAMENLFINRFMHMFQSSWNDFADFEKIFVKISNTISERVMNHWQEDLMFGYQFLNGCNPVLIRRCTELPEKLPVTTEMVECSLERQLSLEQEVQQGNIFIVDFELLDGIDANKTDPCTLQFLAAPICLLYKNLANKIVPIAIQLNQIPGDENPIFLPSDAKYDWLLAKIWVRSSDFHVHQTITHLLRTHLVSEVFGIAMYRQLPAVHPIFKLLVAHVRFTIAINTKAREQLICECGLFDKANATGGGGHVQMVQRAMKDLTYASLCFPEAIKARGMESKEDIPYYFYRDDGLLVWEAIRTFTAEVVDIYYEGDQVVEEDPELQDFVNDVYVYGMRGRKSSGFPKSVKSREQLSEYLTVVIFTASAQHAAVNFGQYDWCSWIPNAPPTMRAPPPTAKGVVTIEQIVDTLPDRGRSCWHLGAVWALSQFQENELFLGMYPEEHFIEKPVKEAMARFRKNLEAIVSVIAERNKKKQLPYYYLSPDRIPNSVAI
Protocol: (§1) Human leukocyte 5-lipoxygenase was expressed as a non-tagged protein and used as a crude ammonium sulfate protein fraction, as published previously.
(§2) Inhibitor potencies were evaluated through use of the standard UV-based inhibitor assay. The initial rates were determined by following the formation of the conjugated diene product at 234 nm (ε = 25,000 M^−1 cm^−1) with a Perkin-Elmer Lambda 40 UV/Vis spectrophotometer at one substrate concentration and varying inhibitor concentrations. All reactions were 2 mL in volume and constantly stirred using a magnetic stir bar at room temperature (23°C), with the enzyme specific buffer conditions outlined in Table 1. The substrate used for the various isozymes was arachidonic acid (AA) for 5-LOX, 12-LOX, and 15-LOX-2 and linoleic acid (LA) for 15-LOX-1, where concentrations were quantitatively determined by allowing the enzymatic reaction to go to completion. IC50 values were obtained by determining the initial rate at various inhibitor concentrations and plotting them against inhibitor concentration, followed by a hyperbolic saturation curve fit. The data used for the saturation curves were performed in duplicate or triplicate, depending on the quality of the data. […] Inhibitors were stored at −20°C in DMSO. […] The solvent isotope effect of the inhibitor IC50 was investigated utilizing the same conditions and methods as stated above. The pH of the buffered D2O was determined as reported previously.

[2] = biological target: T2, Human reticulocyte 15-lipoxygenase-1 (15-LOX-1) (Homo sapiens, UniProt P16050); assay: Lipoxygenase UV-based inhibitor assay, 15-LOX-1; type: biochemical; conditions: 10 µM LA, pH 7.5
T2 construct: His6 (N); made in house
T2 sequence (P16050 1-662): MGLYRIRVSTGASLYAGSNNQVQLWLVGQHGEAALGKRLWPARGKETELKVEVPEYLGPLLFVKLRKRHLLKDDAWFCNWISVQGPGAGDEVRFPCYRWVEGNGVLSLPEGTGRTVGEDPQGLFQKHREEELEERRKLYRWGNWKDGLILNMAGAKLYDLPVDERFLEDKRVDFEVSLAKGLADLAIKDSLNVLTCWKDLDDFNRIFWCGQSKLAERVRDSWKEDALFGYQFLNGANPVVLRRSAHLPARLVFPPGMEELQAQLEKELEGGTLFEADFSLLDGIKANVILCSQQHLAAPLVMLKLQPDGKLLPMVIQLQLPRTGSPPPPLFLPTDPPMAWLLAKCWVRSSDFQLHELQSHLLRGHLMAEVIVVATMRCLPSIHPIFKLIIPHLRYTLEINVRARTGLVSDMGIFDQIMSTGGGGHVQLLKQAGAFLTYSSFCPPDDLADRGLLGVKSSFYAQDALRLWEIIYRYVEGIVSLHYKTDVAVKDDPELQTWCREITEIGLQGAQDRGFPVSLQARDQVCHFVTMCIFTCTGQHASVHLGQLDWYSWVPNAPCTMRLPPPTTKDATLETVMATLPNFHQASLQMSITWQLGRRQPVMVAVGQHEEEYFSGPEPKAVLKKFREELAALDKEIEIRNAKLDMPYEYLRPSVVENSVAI
Protocol: as §1, §2

[3] = system: LTB4 synthesis in whole human blood; assay: Human blood LTB4 inhibition assay; type: cell-based; conditions: for inhibition at 10 µM: Homo sapiens, compounds at 10 µM, calcium ionophore stimulated, ELISA, error in parentheses
Protocol: Whole human blood was obtained from healthy volunteers from within the Student Health Center. These studies were approved by the UCSC Institutional Review Board (IRB) and informed consent was obtained from all donors before blood draw. The whole blood was dispensed in 150 µL samples followed by addition of inhibitor or control (vehicle, DMSO), and incubated for 15 min at 37°C. The mixture was then stimulated by introduction of the calcium ionophore, […], (freshly diluted from a 50 mM DMSO stock to 1.5 mM in Hanks balanced salt solution), and incubated for 30 min at 37°C. Samples were then centrifuged at 1,500 rpm (300 g) for 10 min at 4°C and the supernatant diluted between 20 and 50-fold (batch dependent) for LTB4 detection, using an ELISA detection kit (Cayman Chemicals Inc.).

[4] = UV-based assay, 10 µM AA, pH 7.3, crude enzyme, error = SD, read-out: 5-LOX IC50
[5] = UV-based assay, read-out: 5-LOX IC50

Row | SMILES | increase in 5-LOX IC50 in D2O relative to H2O (solvent isotope effect) ([1]; D2O buffer vs H2O) [fold] | IC50 [1, 4] [nM] | IC50 [2] [nM] | selectivity for 5-LOX over 12-LOX, 15-LOX-1, 15-LOX-2, COX-1 and COX-2 [1] | IC50 [1, 5] [nM] | inhibition at 10 µM [3] [%] | IC50 [1] [nM] | greater potency than ketoconazole in whole blood ([3]; whole human blood) [fold]
1 | CC(=O)N1CCN(c2ccc(NCc3ccc(-c4cccc(Cl)c4)o3)cc2)CC1 [Compound 13] | 2.4 | 520 | > 50000 | – | – | ~50 | – | –
2 | CC(=O)N1CCN(c2ccc(OCC3COC(Cn4ccnc4)(c4ccc(Cl)cc4Cl)O3)cc2)CC1 (stereo not drawn) [ketoconazole, reference compound] | – | – | > 50000 | – | – | 25 | > 50000 | –
3 | CC(C)(C)OC(=O)N1CCN(c2ccc(NCc3ccc(-c4ccc(C#N)cc4)o3)cc2)CC1 [Compound 1] | – | 170 | > 150000 | – | – | ~50 | – | –

More lines, main results first:

Row | increase in 5-LOX IC50 in D2O relative to H2O (solvent isotope effect) ([1]; D2O buffer vs H2O) [fold] | IC50 [1, 4] [nM] | IC50 [2] [nM] | selectivity for 5-LOX over 12-LOX, 15-LOX-1, 15-LOX-2, COX-1 and COX-2 [1] | IC50 [1, 5] [nM] | SMILES | inhibition at 10 µM [3] [%] | IC50 [1] [nM] | greater potency than ketoconazole in whole blood ([3]; whole human blood) [fold]
4 | – | 330 | > 25000 | – | – | N#Cc1ccc(-c2ccc(CNc3ccc(N4CCCCC4)cc3)o2)cc1 [Compound 14] | – | – | –
5 | – | 700 | > 150000 | over 100 times | 700 | CC(=O)N1CCN(c2ccc(NCC3COC(Cn4ccnc4)(c4ccc(Cl)cc4Cl)O3)cc2)CC1 (stereo not drawn) [ketaminazole (16), ketaminazole] | 45 | – | 2
6 | – | 11000 ± 1000 | > 100000 | – | – | Cc1cc(C2CCCCC2)n(O)c(=O)c1 [ciclopirox, reference compound] | 34 | – | –
7 | – | – | > 150000 | – | 60 ± 6 | CC[C@](O)(c1nnc(NCc2ccc3c(-c4ccc(F)cc4)cc(=O)oc3c2)o1)C(F)(F)F [setileuton, reference compound] | 100 | – | –
